In data set [1] the test system is mouse-derived preosteoblast cell line MC3T3-E1. As to the kind of experiment: Cytotoxicity evaluation, relative cell metabolic activity (CellTiter-Blue), MC3T3-E1. The following applies: Mus musculus, 24 h, mean ± SD, read-out: Relative metabolic activity of MC3T3-E1 cells. The format is cell-based. Here is the method: (§1) All target compounds were studied to determine their cytotoxic activity at various concentrations of each compound (10–50 µM) against human-derived osteosarcoma cell line MG-63 (ATCC, CRL-1427) and mouse-derived preosteoblast cell line MC3T3-E1 (ATCC, CRL-2593) (Table 4 and Figures S1-S4 in the Supporting Information). For the comparison, naturally occurring betulinic, oleanolic (1b) and ursolic (1c) acids as well as their 3-oxo analogs 2a-c and doxorubicin, were also subjected to the cytotoxicity tests.
(§2) Cytotoxicity of betulinic acid, ursolic acid and oleanolic acid derivatives was evaluated using human-derived osteosarcoma cell line MG63 (ATCC, CRL-1427) and mouse-derived preosteoblast cell line MC3T3-E1 (ATCC CRL-2593). Before conducting the experiments, both cell lines were continuously cultured according to the ATCC product sheet instructions. Briefly, both cell lines were expanded in α-MEM medium supplemented with 10% FBS and 1% pen-strep and maintained at 37 °C in a humidified atmosphere with 5% CO2.
(§3) Each cell line was plated at a concentration of 1 × 10^4 cells/well in 96-well plate. The plates were incubated for 24 h to allow cell attachment and growth. Bioactive substances were solubilized in methanol prior further dilution in cell culture media. Following the cell incubation period, the culture media was removed and the dilutions of active substance (10, 25 and 50 µM) in cell culture media were added. The culture medium only and its dilutions with methanol solution respective to the bioactive substance concentrations were used as the controls. […] Cells were treated with bioactive substance solutions for 24 h. After 24 h incubation, relative cell metabolic activity was assessed using CellTiter-Blue® (CTB) analysis (Promega, JAV). […] was measured at 590 nm using microplate reader (Infinite® 200 PRO, Tecan, USA). The relative cell metabolic activity was calculated for each bioactive substance concentration as well as for the controls. […] Statistically significant differences between sample groups are assessed using a one-way ANOVA test and then corrected using the Šídák multiple comparison test. Statistically significant differences were considered to be those with a P-values less than 0.05 (p < 0.05).
(§4) Cytotoxicity of betulinic acid, ursolic acid and oleanolic acid derivatives was evaluated using human-derived osteosarcoma cell line MG63 (ATCC, CRL-1427) and mouse-derived preosteoblast cell line MC3T3-E1 (ATCC CRL-2593). Before conducting the experiments, both cell lines were continuously cultured according to the ATCC product sheet instructions. Briefly, both cell lines were expanded in α-MEM medium supplemented with 10 % FBS and 1 % pen-strep and maintained at 37 °C in a humidified atmosphere with 5 % CO2.
(§5) […]
(In general: Resazurin is reduced to fluorescent resorufin, in cell work by metabolically active cells.)

The subject of data set [2] is human-derived osteosarcoma cell line MG-63. As to the kind of experiment: Cytotoxicity evaluation, relative cell metabolic activity (CellTiter-Blue), MG-63. The following applies: Homo sapiens, 24 h, mean ± SD, read-out: Relative metabolic activity of MG-63 cells. The class given is cell-based. Here is the method: as §1, §2, §3, §4, §5
Data set [3] can be described thus: Water solubility determination by quantitative 1H-NMR in D2O. The class given is physicochemical. To be noted: D2O adjusted with NaOD, aqueous buffer, thermodynamic from solid; qNMR in D2O, pH 8.0-8.5 (NaOD), room temperature, potassium hydrogen phthalate external standard. The source says:
The obtained PCT-derived sodium phosphonates were subjected to water solubility tests (Table 3). For this purpose, we used a quantitative ^1H-NMR approach in D2O, using potassium hydrogen phthalate as an external standard (for experimental details see Supporting Information). The presence of the basic forms of phosphonates[80] was ensured by the careful addition of NaOD, maintaining pH 8.0–8.5 during the quantification, which is 2–3 units higher than the pKa of phosphonic acid disalt. […] This is by at least two to three orders of magnitude higher than the reported solubilities of the parent natural triterpenic acids. […] Indeed, phosphonic acids are more acidic and easier ionizable than carboxylic acids. This ionic character helps to increase the aqueous solubility as exemplified by here described compounds.
Water solubility determination
To suspension of PCT phosphonate sample (10 mg) in D2O (500 µL) 0.8% solution of NaOD in D2O was added dropwise until pH = 8-8.5 (<100 µL). Obtained suspension was sonified in ultrasonic bath for 10 min. Undissolved particles were separated by centrifugation. Clear D2O solution was carefully transferred to NMR tube equipped with external standard vial.
Formula (1) was used to determine the solubility of PCT sample in the D2O.
[…]
SolPCT - solubility of PCT sample in D2O at room temperature (mg/mL)
IPCT - integral value of PCT signal of choice
Ist - integral value of external standard signal of choice
NPCT - number of integrated protons of PCT
Nst - number of integrated protons of external standard
V - volume of used D2O (mL) mst - mass of external standard (mg)
Mbet - molecular weight of PCT (g•mol−1)
Mst - molecular weight of external standard - potassium hydrogen phthalate (204.22 […]
Wst - assay of the external standard (99.5 %)

For the compound `C=C(C)[C@@H]1CC[C@]2(COCP(=O)([O-])[O-])CC[C@]3(C)[C@H](CC[C@@H]4[C@@]5(C)CC[C@H](OCP(=O)([O-])[O-])C(C)(C)[C@@H]5CC[C@]43C)[C@@H]12.[Na+].[Na+].[Na+].[Na+]` [compound 12, Sodium (lup-20(29)-en-(3 S)-3,28-diylbis(oxymethylene))bis(phosphonate)], the viability at 10 µM in data set [1] (MC3T3-E1, 10 µM) was determined as 90 ± 7%; in data set [2] (MG-63, 10 µM), 97 ± 8%. Moreover, the viability at 25 µM in data set [1] (MC3T3-E1, 25 µM) turned out to be 93 ± 6%; in data set [2] (MG-63, 25 µM) it was 89 ± 5%. The viability at 50 µM was found to be 92 ± 4% in data set [1] (MC3T3-E1, 50 µM) and 94 ± 4% in data set [2] (MG-63, 50 µM). In addition, the solubility (as a rule, the concentration that dissolves in the medium under given conditions) at 10 min in data set [3] was 3000 µg/mL.

Values taken from article PMC11564732, “Synthesis and preliminary cytotoxicity evaluation of water soluble pentacyclic triterpenoid phosphonates” (Scientific Reports, 2024).
